Experimental data: patent US8197858B2, “Bone microenvironment modulated seizure treatments” (priority 2009, dated 2012)

Columns and labels:
[1] = serum estrogen levels and half life with estradiol transdermal patch in postmenopausal women (Ginsburg et al.); format: in vivo; details: female, human, other: transdermal patch, 0.1 mg, after removal of patch, worked out from mean half life, read-out: terminal half life (converted)
From the text: Exogenous estrogen can be used to inhibit osteoclast activity and bone resorption by the “triple whammy” previously disclosed, inhibiting osteoclast activity by binding to osteoblasts and 1) increasing their output of OPG and 2) suppressing their RANKL production and 3) prolonging the lives of osteoblasts while simultaneously promoting osteoclast apoptosis. […] The dose is low enough and for a short enough period of time that it should not materially interfere with any of the menstrual processes. Alternatively, the patch may also be cut in half to obtain a half dose (0.05 ng/ml) cushion factor. Estrogen is available in oral, injectable, and patch forms from numerous suppliers and include Estrace, Cenestin, Enjuvia, Femtrace, Gynodiol, Menest etc. . . .
SERM/Estradiol: If the patient is on birth control, which is basically 3 weeks of estrogen followed by 1 week of sugar pills, the SERM raloxifene could be substituted for the sugar pills. Alternatively, low levels of estrogen could be substituted for one or more of the sugar pills, with the goal of keeping the serum levels around 0.1 ng/ml, without the sharp transition drop, and without the potential for interfering with progression of menstruation. Alternatively, an estrogen patch may be used. […]

serum calcium [2] = details: 7.5 mg/kg, 2 h infusion x3 days; cited from earlier work
patients with PMS = details: double blind study; cited from earlier work
blood calcium levels = details: more potent than human calcitonin; cited from earlier work
[3] = testosterone levels with Androderm transdermal patch; details: human, in vivo, other: transdermal patch
From the text: When androgens such as testosterone bind to osteoblast receptors, the osteoblast is stimulated to form new bone (i.e. move calcium into bone). […] Accordingly, administration of androgens such as testosterone, or administration of endocrine hormones that upregulate indigenous production of androgens (e.g. in males, luteinizing hormone, gonadotropin/luteinizing hormone releasing hormone), can be used to reduce extracellular calcium levels by moving calcium back into bone. Testosterone USP is natural testosterone that has been approved by the United States Pharmacopoeia and is available as a bulk chemical. Testosterone is well-absorbed from transdermal (topical) creams and gels. Dosage forms also include sublingual drops, buccal or sublingual troches or tablet triturates. […] In the form known as Testosterone Cypionate, testosterone can be administered by intramuscular injection every 1-3 weeks. WatsonPharma's Androderm transdermal 2.5 mg or 5 mg testosterone patch provides a more convenient way to administer testosterone, and provides the ability to administer the testosterone over a desired time frame much more precisely (as will be discussed further in representative examples). Androderm patches can ramp up testosterone levels quickly (e.g. 349 ng/dl within 3 hours, 528 ng/dl within 6 hours, when applied to the back) and can be used for up to 24 hours. […]

serum calcium [4] = details: injections of 4-8 IU/kg (IM or SubQ), most patients; cited from earlier work
[5] = system: tryptophan hydroxylase (TPH); details: estrogen treated monkey; cited from earlier work

C[C@]12CC[C@@H]3c4ccc(O)cc4CC[C@H]3[C@@H]1CC[C@@H]2O [estradiol]
half-life [1]: ~9 h

CC(O)(P(=O)(O)O)P(=O)(O)O [etidronate disodium]
duration of efficacy (serum calcium [2]): more than a week

N[C@@H](Cc1cc(I)c(Oc2cc(I)c(O)c(I)c2)c(I)c1)C(=O)O [levothyroxine]
benefit over the placebo (patients with PMS): did not show any benefit over the placebo

CC(C)C[C@H](NC(=O)[C@H](CCCCN)NC(=O)CNC(=O)[C@H](CC(C)C)NC(=O)[C@@H](NC(=O)[C@@H]1CSSC[C@H](N)C(=O)N[C@@H](CO)C(=O)N[C@@H](CC(N)=O)C(=O)N[C@@H](CC(C)C)C(=O)N[C@@H](CO)C(=O)N[C@@H]([C@@H](C)O)C(=O)N1)C(C)C)C(=O)N[C@@H](CO)C(=O)N[C@@H](CCC(N)=O)C(=O)N[C@@H](CCC(=O)O)C(=O)N[C@@H](CC(C)C)C(=O)N[C@@H](Cc1c[nH]cn1)C(=O)N[C@@H](CCCCN)C(=O)N[C@@H](CC(C)C)C(=O)N[C@@H](CCC(N)=O)C(=O)N[C@H](C(=O)N[C@@H](Cc1ccc(O)cc1)C(=O)N1CCC[C@H]1C(=O)N[C@@H](CCCNC(=N)N)C(=O)N[C@H](C(=O)N[C@@H](CC(N)=O)C(=O)N[C@H](C(=O)NCC(=O)N[C@@H](CO)C(=O)NCC(=O)N[C@H](C(=O)N1CCC[C@H]1C(N)=O)[C@@H](C)O)[C@@H](C)O)[C@@H](C)O)[C@@H](C)O [salmon calcitonin]
potency relative to human calcitonin (blood calcium levels): 40-50 times

C[C@]12CC[C@H]3[C@@H](CCC4=CC(=O)CC[C@@]43C)[C@@H]1CC[C@@H]2O [testosterone]
time to return to baseline levels after removal of the patch [3]: 3 to 4 h

Calcitonin
drop in serum calcium levels (serum calcium [4]): 1 to 2 mg/dL

estrogen
increase in tryptophan hydroxylase (TPH) [5]: nine-fold
